Measurements reported in ChEMBL document CHEMBL1255548, “Novel bisphosphonate inhibitors of the human farnesyl pyrophosphate synthase” (Bioorg Med Chem Lett, 2010).

How the values were obtained:
[1] = target: T1, Farnesyl pyrophosphate synthase (Homo sapiens) (UniProt P14324); test: Inhibition of N-terminal His-tagged human FPPS expressed in Escherichia coli at 10 uM
T1 sequence (whole entry): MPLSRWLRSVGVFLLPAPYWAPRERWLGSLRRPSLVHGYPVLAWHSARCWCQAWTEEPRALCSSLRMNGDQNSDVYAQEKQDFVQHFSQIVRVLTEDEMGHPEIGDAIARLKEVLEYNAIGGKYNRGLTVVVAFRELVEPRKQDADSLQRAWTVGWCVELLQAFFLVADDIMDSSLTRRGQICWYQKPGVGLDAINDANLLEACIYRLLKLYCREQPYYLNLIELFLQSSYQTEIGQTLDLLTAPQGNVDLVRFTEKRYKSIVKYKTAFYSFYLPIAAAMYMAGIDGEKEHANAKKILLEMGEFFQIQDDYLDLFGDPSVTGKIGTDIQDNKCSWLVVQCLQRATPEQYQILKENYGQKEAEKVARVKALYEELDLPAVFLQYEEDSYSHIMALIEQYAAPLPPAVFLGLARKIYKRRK

[2] = target: T1, Farnesyl pyrophosphate synthase (Homo sapiens); test: Inhibition of N-terminal His-tagged human FPPS expressed in Escherichia coli at 1 uM
[3] = target: T2, Farnesyl pyrophosphate synthase (Homo sapiens, UniProt P14324); test: Inhibition of N-terminal His-tagged human FPPS expressed in Escherichia coli
T2 sequence (P14324 whole entry): T1 sequence (whole entry)

inhibition [1]	inhibition [2]	IC50 [3]	Structure (SMILES)
81%	–	–	O=P(O)(O)C(F)(Cc1cncc(-c2cccc3[nH]ncc23)c1)P(=O)(O)O
–	> 50%	700 nM	O=P(O)(O)C(F)(Cc1cncc(-c2ccc3[nH]ncc3c2)c1)P(=O)(O)O
86%	–	–	Cc1noc(C)c1-c1cncc(CC(F)(P(=O)(O)O)P(=O)(O)O)c1
–	> 50%	650 nM	O=P(O)(O)C(F)(Cc1cncc(-c2cn[nH]c2)c1)P(=O)(O)O
